The text below walks through data of patent publication US11851459B2, “Methods and uses of modulators of anaphase promoting complex (APC) activity for treating cancer” (University of Saskatchewan, priority 2018, dated 2023).

One test relates to apc5^CA cells. Put plainly: Yeast replicative lifespan (RLS) assay. It is filed as cell-based. As to the method:
A. apc5^CA (temperature sensitive allele) cells were transformed with C43-4 or an empty vector. Cells grown overnight in 2% Glu were struck onto 2% Glucose plates and used for the yeast RLS assay. From the top left hand corner of the figures, top line is WT +empty vector, middle line is apc5^CA+C43-4 peptide and bottom line is apc5^CA+empty vector. B. WT cells transformed with C43-4, C2-4B or an empty vector were grown to stationary phase in 2% Glu media, then after 2 days spot diluted onto 2% Glu or 2% Gal to induce expression of the peptides.

In another test the test system is wild type (WT) cells. The test can be described thus: C43-4 mutant peptides, spot dilution under temperature and UV stress, WT cells. In kind it is cell-based, yeast. The note with it: low level expression on glucose. As to the method:
The cells were exposed to 5 sec of UV from a UV box prior to incubation. The plus signs define growth compared to the empty vector control.
Residues 2, 7, 8, 10, 12 and 14 of peptide C43-4 are conserved with Htz1. All of these residues were mutated to alanine (FIG. 10). Peptides that contained mutations designed to determine which amino acids were required for function were generated. These mutant peptides were grown in wild type cells and in cells that had APC10 mutated, under temperature and UV stress conditions (FIGS. 10-12).
These cells were spot diluted on Trp^− plates and grown at the temperatures shown and/or exposed to ultraviolet (UV) irradiation (FIGS. 10-12). At low level expression on glucose, some of the mutations caused stress dependent phenotypes.
• 1. Cells were cultured overnight in Trp^− 2% glucose media • 2. The growth of the cells was determined by measuring the optical density (OD) of the cells at 600 nm (OD600) • 3. Cells were diluted to OD600 of 1 with fresh culture media • 4. 100 ul of each culture was pipetted into a well of a 96 well plate • 5. 10 ul of the each starting culture was pipetted into 90 ul of water in 4 additional wells to make a 10-fold serial spot dilution • 6. 5 ul from each serial dilution was spotted onto plates containing standard growth media with either 2% glucose or 2% galactose using a multi-pipettor • 7. The plates were exposed to UV • 8. […]

The next test concerns MDA-MB-231 cells. The test can be described thus: DOX sensitivity, MTT viability assay, MDA-MB-231 cells expressing peptides. In kind it is cell-based, human. The conditions noted are these: for sensitivity to DOX treatment: DOX 1 uM 48 hrs. As to the method:
A. Transient transfection of the C43-4 peptide plasmid into human triple negative MDA-MB-231 breast cancer cells followed by Western blot analysis of lysates against Cyclin B, Securin and Cdc20 showing enhanced protein loss. B. Cells in A were treated with DOX (1 uM) for 48 hrs with cell viability measured using an MTT assay kit. The experiment was done in triplicate with standard error of the means shown.
A. Stable integration of C43-4 in MDA-MB-231 cells was established by selection of transfected cells on Geneticin for 7 days. Westerns against APC substrates show APC activation. B. Cells in A were treated with DOX (1 uM) for 48 hrs with cell viability measured using an MTT assay kit. Mean and SEM of 3 biological repeats.
A. TNBC MDA-MB-231 cells stably expressing APC binding peptides activate the APC. Cells were grown to confluence and then used to prepare protein lysates. The lysates were used to measure levels of the APC substrate CDC20, which will be reduced if the APC is activated. Cells stably expressing the pcDNA empty vector were used as a control. B. In a similar experiment, MDA-MB-231 cells stably expressing the APC binding peptides shown, or the empty vector control, were used to measure protein levels of the APC substrate HURP using Westerns. C. Triplicate blots as in B were scanned, normalized to tubulin and plotted. Error of the mean is shown. Significant changes are indicated. D. MDA-MB-231 cells stably expressing the empty pcDNA vector, or the C43-4 and C13-3 APC binding peptides, were treated with 1 μM Doxorubicin for 24 hrs. Cell viability was measured using an MTT viability assay.
In FIG. 26B, MDA-MB-231 cells were also stably transfected with the peptides C1-8, C2-4B, C3-1B, and C9-5. Levels of the APC substrate HURP were measured in lysates prepared from these cells. […] The empty vector pcDNA was also stably expressed in 231 cells and used as a control.

As for NGSSHNDLRVRRLTLISRLC [C43-4], the replicative lifespan entry in the test with apc5^CA cells is given as “increased replicative lifespan”. Also, in the test with wild type (WT) cells, the “stress resistance (growth compared to empty vector)” value is given as “increased stress resistance”. The “synergy with Doxorubicin (killing effect)” value with MDA-MB-231 cells (stably transfected, 1 uM Doxorubicin 24 hours) was “synergize”. Further, the “sensitivity to DOX treatment” value in the test on MDA-MB-231 cells (stably transfected) and in the test on MDA-MB-231 cells (transiently transfected) was “resensitized” in each case.
